Patent US5834462A, “Tricyclic heterocyclic sulfonamide and sulfonic ester derivatives” (Eisai Co., Ltd., priority 1993, dated 1998)
Values after ≈ are worked out from the molar mass of the structure shown.

Assays:
[1] = tested on: M5076 (mouse reticulum cell sarcoma); assay: in vivo antitumor test on M5076 transplanted in BDF1 mice; settings: intraperitoneal, 4 times every other day from 10th day
Text: in vivo antitumor test on M5076 (mouse reticulum cell sarcoma)
1×10^6 M5076 cells were subcutaneously transplanted into the lateral parts of BDF1 mice (aged 6 to 9 weeks, female). A compound of the present invention was suspended in physiological saline containing 3.5% of dimethyl sulfoxide and 6.5% of Tween 80 and a given amount of the obtained suspension was intraperitoneally administered to the animals 4 times from the 10th day after the transplantation once a day every other day. The control group comprised 10 to 12 animals, while the test group comprised 5 or 6 animals.
On the 21st day after the transplantation, tumors were taken out and weighed. Then the tumor multiplication inhibitory ratio of each test group based on the control group was determined in accordance with the following equation. [formula] T: average tumor weight of the test group. C: average tumor weight of the control group.

[2] = tested on: KB cells (human nasopharyngeal cancer cells); assay: in vitro Antitumor test on KB cells (MTT); assay type: cell-based; settings: 72 h, 3 days incubation
Protocol: in vitro Antitumor test on KB cells (human nasopharyngeal cancer cells)
KB cells suspended in an RPMI1640 medium (mfd. by Nissui Seiyaku K. K.), which contained 10% of fetal calf serum, 100 U/mi of penicillin, 100 μg/ml of streptomycin, 5×10^-5 M of mercaptoethanol and 1 mM of sodium pyruvate, were inoculated in 1.25×10^3 portions (0.1 ml) into wells of a 96-well flat-bottomed microplate and then incubated in an incubator containing 5% of carbon dioxide at 37° C. for a day.
A compound of the present invention was dissolved in dimethyl sulfoxide in a concentration of 20 mg/ml and diluted with a 10% fetal calf serum-RPMI1640 culture medium to a concentration of 100 μg/ml. By using this concentration as the highest level, threefold serial dilution was performed with a 10% fetal calf serum-RPMI1640 culture medium. Then it was added in 0.1 ml portions into the wells of the above-mentioned plate wherein the KB cells had been incubated followed by incubation in the incubator containing 5% of carbon dioxide at 37° C. for 3 days.
After incubating, an MTT (3-(4,5-dimethylthiazol-2-yl)-2,5-diphenyltetrazolium bromide) solution (3.3 mg/ml) was added in 0.05 ml portions into the wells and the incubation was effected for additional 1 hour. After sucking off the supernatant from each well, the formazane thus formed was dissolved in 0.1 ml of dimethyl sulfoxide. Then the absorbance at 540 nm was measured with a microplate reader and employed as an indication of the vital cell count. In accordance with the following equation, the inhibitory ratio was calculated and the 50% inhibitory concentration (IC50) of the test compound was determined. [formula] T: absorbance of a well containing the test commpound. C: absorbance of a well containing no test compound.

SMILES	Inhibitory ratio (tumor weight, 21st day) ([1]; 50 mg/kg/day) [%]	Survival ratio on 21st day ([1]; 50 mg/kg/day) [%]	IC50 [2] [µg/mL]	Inhibitory ratio (tumor weight, 21st day) ([1]; 100 mg/kg/day) [%]	Survival ratio on 21st day ([1]; 100 mg/kg/day) [%]	Inhibitory ratio (tumor weight, 21st day) ([1]; 25 mg/kg/day) [%]	Survival ratio on 21st day ([1]; 25 mg/kg/day) [%]
COc1ccc(S(=O)(=O)Nc2cccc3c2Nc2ccccc2S3)cc1 [Example 1, 4-Methoxy-N-(10H-phenothiazin-1-yl)benenesulfonamide]	73	100	0.11 (≈ 0.286 µM)	–	–	–	–
COc1ccc(S(=O)(=O)Nc2cccc3c2Nc2ccccc2CO3)cc1 [Example 17, N-(5,11-Dihydrpdibenz(b,e)(1,4)oxazepin-6-yl)-4-methoxybenzenesulfonamide]	–	–	0.03 (≈ 0.0784 µM)	81	100	–	–
COc1ccc(S(=O)(=O)Nc2cccc3c2Nc2cc(F)c(F)cc2S3)cc1 [Example 28, N-(7,8-Difluoro-10-pbenothiazin-1-yl)-4-methoxy-benenesulfonamide]	82	100	0.069 (≈ 0.164 µM)	–	–	–	–
COc1ccc(S(=O)(=O)Nc2cccc3c2Nc2ccc(O)cc2CO3)cc1 [Example 30, N-(5,11-Dibydro-2-bydroxydihenz(b,e)(1,4)oxazepin-6-yl)-4-methoxybenzensulfonamide]	–	–	0.028 (≈ 0.0703 µM)	82	100	–	–
COc1ccc(S(=O)(=O)Nc2cccc3c2Nc2ccc(F)cc2CN3)cc1 [Example 32, N-(10,11-Dihydro-2-fluoro-5dibenzo(b,e) (1,4)-diazepin-6-yl)-4-methoxybenzenesulfonamide]	–	–	0.082 (≈ 0.205 µM)	–	–	84	100
